Measured values taken from patent US20140005070A1, “MARKERS ASSOCIATED WITH CYCLIN-DEPENDENT KINASE INHIBITORS” (Novartis AG, priority 2011, published 2014).

Columns and labels:
MEPCE [1] = experiment: Western blot of MEPCE protein in NCI-H929 cells (FIG. 4); format: cell-based
Procedure: After treatment with a CDKI, cells were lysed in modified RIPA buffer containing 50 mM TRIS pH 7.4, 150 mM NaCl, 1 mM EDTA, 1% Brij-35, 0.1% deoxycholate, protease inhibitors (Roche Molecular Biochemicals, Mannheim, Germany). SDS-PAGE (4-12% gel) was used to resolve the proteins in the lysate. After electrophoresis, the proteins were electrotransferred onto a polyvinylidene fluoride microporous membrane and immunodetected using standard procedures. FIG. 4 is a Western blot of the multiple myeloma line NCI-H929, treated with CDKI(7) or DMSO and gene expression analyzed at certain time points during the treatment. […] Thus, the reduction in expression of genes in response to CDKI seen at the mRNA level by microarray is confirmed at the protein level by Western blotting.

MEPCE [2] = experiment: Dog toxicology study, TaqMan mRNA in white blood cells after CDKI(7): MEPCE; format: in vivo
Procedure: As part of a dog toxicology study, CDKI(7) was administered to dogs. White blood cells were harvested and MEPCE, MYC and MCL1 gene expression was assessed as PD markers. mRNA levels of each of these PD markers were measured by TaqMan® at various time points after CDKI(7) treatment.
The study had three groups of three dogs each. Dogs in Group 1 (#101, #102, and #103) were treated with CDKI(7) at 0.5 mg/kg, dogs in Group 2 (#104, #105, and #106) were treated at 1 mg/kg CDKI(7) and dogs in Group 3 (#107, #108, and #109) were treated at 2 mg/kg CDKI(7). Samples were collected before treatment (0 hour), 3 hours, 7 hours and 24 hours after treatment for a total of 12 samples per group. Blood samples were received frozen in QIAGEN RNA protect® Animal Blood tubes (Cat. # 76554 QIAGEN-Valencia, Calif., USA). RNA samples were extracted using the QIAGEN RNeasy® Protect Animal Blood kit (Cat. # 73224). RNA samples were quantified using the RNA Quant-iT RNA® assay from Invitrogen (Cat. # Q32852 Invitrogen—Grand Island, N.Y., USA) and read on an Invitrogen Qubit fluorometer® (Cat. # Q32857). First strand cDNA synthesis was performed on 500 ng of RNA in a reaction volume of 20 μl using a High Capacity cDNA Reverse Transcription Kit® from Applied Biosystems (Cat. # 4368814 Applied Biosystems, Carlsbad, Calif., USA). The cDNA samples were then diluted to obtain a 10 ng cDNA input for the TaqMan® reaction. TaqMan® reactions were run in triplicates using a TaqMan® Gene Expression Master Mix from Applied Biosystems (Cat. # 4369016) on an ABI 7500® machine. The 18S rRNA level was used as an endogenous control for variations in cDNA input. The relative quantification method was used to analyze the data; this method uses one sample as a calibrator sample and express mRNA levels relative to that sample. The results were expressed as RQ values (Relative Quantification) with RQ Min and RQ Max values determining a 95% confidence interval for the real RQ value. The samples were grouped according to the dose and each group was treated as a separate experiment with one of the pre-dose samples used as a calibrator sample. The logarithm of the RQ values are plotted so that increases or decreases from the initial value can be more easily represented; on a logarithmic scale: a 10-fold increase or 10-fold decrease in RQ value are represented as +1 and −1 respectively.
The mRNA levels were determined by TaqMan® using the relative quantification method. The calibrator samples are dog #101 at 0 hour timepoint for the 0.5 mg/kg dose of CDKI(7), dog #104 at 0 hour timepoint for the 1 mg/kg dose and dog #107 at 0 hour timepoint for the CDKI(7) 2 mg/kg dose. The logarithm (base 10) of the RQ values is plotted with the error bars representing the 95% confidence interval. […] The amplitude and the duration of the down regulation are dose-dependent; at 0.5 mg/kg CDKI(7) the maximum down regulation is 3.2-fold at 3 hours, at 1 mg/kg CDKI(7) it is 5.2-fold at 7 hours and at 2 mg/kg it is 14-fold at 7 hours.

O=C(Nc1cc(-c2cccc(NCC3CCOCC3)n2)c(Cl)cn1)[C@@H]1CCCNC1 [CDKI(7)]
MEPCE protein expression at the 16 hour time point (MEPCE [1]; NCI-H929, Western blot, 16 hour): very little to undetectable levels of protein expression | MEPCE protein expression over time (MEPCE [1]; NCI-H929 multiple myeloma line, Western blot, versus DMSO): reduced over time | maximum down regulation of MEPCE mRNA (MEPCE [2]; 0.5 mg/kg, at 3 hours): 3.2 fold | maximum down regulation of MEPCE mRNA (MEPCE [2]; 1 mg/kg, at 7 hours): 5.2 fold | MEPCE mRNA levels at 24 hours (MEPCE [2]; 2 mg/kg, one of the dogs (#109)): some degree of down regulation | maximum down regulation of MEPCE mRNA (MEPCE [2]; 2 mg/kg, at 7 hours): 14 fold | MEPCE mRNA levels at 24 hours (MEPCE [2]; 0.5 and 1 mg/kg): back to pre-treatment levels | MEPCE mRNA regulation (MEPCE [2]; all three doses (0.5, 1, 2 mg/kg), FIG. 6): clear down regulation
